Assay results reported in PubChem BioAssay AID200 (DTP/NCI, 2004).
Values joined by “and” are separate entries in the source; they are usually repeats but may differ in a detail not shown here. Equal values may be shown once. Toxic doses and inconclusive results are not listed. Where a SMILES comes first, the peptide text is derived from it. [ ]: non-standard residue; d: D form. The star is where a group is joined. Cbz = O=C(OCc1ccccc1)*; Nva = CCC[CH](N)C(=O)O

System: B6C3F1 mice, B16 melanoma ip, median survival T/C
Experiment: NCI In Vivo Anticancer Drug Screen. Data for tumor model B16 Melanoma (intraperitoneal) in B6C3F1 mice
Conditions: endpoint: median survival time, schedule: Q01DX009 (ip), higher = longer survival
How it was run: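 Tumor-bearing mice received test compound; a separate group got vehicle only. Survival was then compared, with results reported as treated over control.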

[1] = dose: 12.5 mg/kg/injection, vehicle: saline with Tween-80
[2] = dose: 25.0 mg/kg/injection, vehicle: saline with Tween-80
[3] = dose: 50.0 mg/kg/injection, vehicle: saline with Tween-80
[4] = dose: 100.0 mg/kg/injection, vehicle: saline with Tween-80
[5] = dose: 200.0 mg/kg/injection, vehicle: saline with Tween-80
[6] = dose: 6.25 mg/kg/injection, vehicle: saline with Tween-80
[7] = dose: 100.0 mg/kg/injection, vehicle: saline
[8] = dose: 200.0 mg/kg/injection, vehicle: saline
[9] = dose: 50.0 mg/kg/injection, vehicle: saline
[10] = dose: 400.0 mg/kg/injection, vehicle: saline with Tween-80
[11] = dose: 12.5 mg/kg/injection, vehicle: saline
[12] = dose: 25.0 mg/kg/injection, vehicle: saline
[13] = dose: 6.25 mg/kg/injection, vehicle: Klucel (hydroxypropylcellulose) (HPC)
[14] = dose: 12.5 mg/kg/injection, vehicle: Klucel (hydroxypropylcellulose) (HPC)
[15] = dose: 25.0 mg/kg/injection, vehicle: Klucel (hydroxypropylcellulose) (HPC)
[16] = dose: 50.0 mg/kg/injection, vehicle: Klucel (hydroxypropylcellulose) (HPC)
[17] = dose: 100.0 mg/kg/injection, vehicle: Klucel (hydroxypropylcellulose) (HPC)
[18] = dose: 200.0 mg/kg/injection, vehicle: Klucel (hydroxypropylcellulose) (HPC)

## COc1ccc(/C=C/C(=O)c2cc(C(=O)O)c(OC)cc2OC)cc1OC
[1]
  T/C: 100 % of control
dose: 12.5 mg/kg/injection, vehicle: suspension in saline
  T/C: 106 % of control
[2]
  T/C: 94 % of control
dose: 25.0 mg/kg/injection, vehicle: suspension in saline
  T/C: 101 % of control
[3]
  T/C: 96 % of control
dose: 50.0 mg/kg/injection, vehicle: suspension in saline
  T/C: 106 % of control
[4]
  T/C: 88 % of control
dose: 100.0 mg/kg/injection, vehicle: suspension in saline
  T/C: 96 % of control
[5]
  T/C: 96 % of control
dose: 200.0 mg/kg/injection, vehicle: suspension in saline
  T/C: 108 % of control
dose: 400.0 mg/kg/injection, vehicle: suspension in saline
  T/C: 98 % of control

## COc1ccc(S(=O)(=O)N=N/C=C2\C=CC=CN2O)cc1OC
dose: 3.0 mg/kg/injection, vehicle: saline with Tween-80
  T/C: 119 % of control
dose: 3.12 mg/kg/injection, vehicle: saline with Tween-80
  T/C: 111 % of control
dose: 6.0 mg/kg/injection, vehicle: saline with Tween-80
  T/C: 123 % of control
[6]
  T/C: 102 % of control
[1]
  T/C: 107 % of control
[2]
  T/C: 123 % of control
[3]
  T/C: 122 % of control

## CCOC(=O)C1=C(C)NC(C)=C(C(=O)OCC)C1C
[7]
  T/C: 94 % of control
[8]
  T/C: 95 % of control
dose: 400.0 mg/kg/injection, vehicle: saline
  T/C: 91 % of control

## NCC(=O)N1CCCC1C(=O)NCC(=O)NCC(=O)O (stereo unspecified) (HELM PEPTIDE1{G.[O=C(C1CCCN1[*:1])[*:2]].G.G}$$$$V2.0)
[9]
  T/C: 92 % of control
[7]
  T/C: 100 % of control
[8]
  T/C: 95 % of control

## CC(=O)OCC1(C)NC(=O)c2ccccc2O1 (stereo unspecified)
[1]
  T/C: 88 % of control and 103 % of control
[2]
  T/C: 114 % of control and 103 % of control
[3]
  T/C: 95 % of control and 100 % of control
[4]
  T/C: 92 % of control and 93 % of control
[5]
  T/C: 90 % of control
[10]
  T/C: 86 % of control

## [Cl][Pt+2][Cl].[NH-]C1CCC1.[NH2-]
dose: 0.75 mg/kg/injection, vehicle: saline
  T/C: 151 % of control
dose: 3.0 mg/kg/injection, vehicle: saline
  T/C: 205 % of control

## CN(C)[C@@H]1C(=O)C(C(N)=O)=C(O)[C@@]2(O)C(=O)C3=C(O)c4c(O)ccc(Cl)c4[C@@](C)(O)[C@H]3C[C@@H]12
[11]
  T/C: 97 % of control
dose: 12.5 mg/kg/injection, vehicle: water
  T/C: 109 % of control
[12]
  T/C: 97 % of control
dose: 25.0 mg/kg/injection, vehicle: water
  T/C: 105 % of control
[9]
  T/C: 101 % of control
dose: 50.0 mg/kg/injection, vehicle: water
  T/C: 104 % of control
[7]
  T/C: 94 % of control
dose: 100.0 mg/kg/injection, vehicle: water
  T/C: 100 % of control
[8]
  T/C: 98 % of control
dose: 200.0 mg/kg/injection, vehicle: water
  T/C: 106 % of control

## C[PH+](C)C.C[PH+](C)C.[Au]
dose: 0.31 mg/kg/injection, vehicle: Klucel (hydroxypropylcellulose) (HPC)
  T/C: 115 % of control
dose: 0.62 mg/kg/injection, vehicle: Klucel (hydroxypropylcellulose) (HPC)
  T/C: 117 % of control
dose: 1.25 mg/kg/injection, vehicle: Klucel (hydroxypropylcellulose) (HPC)
  T/C: 114 % of control
dose: 2.5 mg/kg/injection, vehicle: Klucel (hydroxypropylcellulose) (HPC)
  T/C: 112 % of control

## O=c1oc2c(O)c(O)cc3c(=O)oc4c(O)c(O)cc1c4c23
[13]
  T/C: 116 % of control
[14]
  T/C: 117 % of control
[1]
  T/C: 123 % of control
[15]
  T/C: 114 % of control and 120 % of control
[2]
  T/C: 113 % of control
[16]
  T/C: 114 % of control and 87 % of control
[3]
  T/C: 114 % of control
[17]
  T/C: 108 % of control and 88 % of control
[4]
  T/C: 105 % of control
[18]
  T/C: 116 % of control
[5]
  T/C: 115 % of control
[10]
  T/C: 119 % of control

## N=c1ccn2c(n1)OC1C(O)C(CO)OC12 (stereo unspecified)
dose: 18.75 mg/kg/injection, vehicle: saline
  T/C: 100 % of control
dose: 37.5 mg/kg/injection, vehicle: saline
  T/C: 118 % of control and 104 % of control
dose: 75.0 mg/kg/injection, vehicle: saline
  T/C: 100 % of control and 106 % of control (2×)
dose: 150.0 mg/kg/injection, vehicle: saline
  T/C: 114 % of control and 106 % of control (2×)
dose: 300.0 mg/kg/injection, vehicle: saline
  T/C: 112 % of control and 121 % of control and 106 % of control

## C=C(OC1C(C)=C2C(C1OC(=O)CCCCCCC)C(C)(OC(C)=O)CC(OC(=O)CCC)C1(O)C2OC(=O)C1(C)O)/C(C)=C/C (stereo unspecified)
dose: 0.09 mg/kg/injection, vehicle: Klucel (hydroxypropylcellulose) (HPC)
  T/C: 99 % of control
dose: 0.18 mg/kg/injection, vehicle: Klucel (hydroxypropylcellulose) (HPC)
  T/C: 114 % of control
dose: 0.37 mg/kg/injection, vehicle: Klucel (hydroxypropylcellulose) (HPC)
  T/C: 102 % of control
dose: 0.75 mg/kg/injection, vehicle: Klucel (hydroxypropylcellulose) (HPC)
  T/C: 114 % of control

## COc1cccc(Sc2ccc([N+](=O)[O-])c3no[n+]([O-])c23)c1
dose: 1.85 mg/kg/injection, vehicle: saline with Tween-80
  T/C: 111 % of control and 93 % of control
dose: 3.75 mg/kg/injection, vehicle: saline with Tween-80
  T/C: 94 % of control and 101 % of control
dose: 7.5 mg/kg/injection, vehicle: saline with Tween-80
  T/C: 92 % of control and 99 % of control
dose: 15.0 mg/kg/injection, vehicle: saline with Tween-80
  T/C: 88 % of control and 91 % of control
dose: 30.0 mg/kg/injection, vehicle: saline with Tween-80
  T/C: 88 % of control and 89 % of control and 95 % of control
dose: 60.0 mg/kg/injection, vehicle: saline with Tween-80
  T/C: 91 % of control

## Nc1ccc(S(=O)(=O)c2ccc(N)cc2)cc1
[13]
  T/C: 95 % of control
[6]
  T/C: 103 % of control
[14]
  T/C: 106 % of control
[1]
  T/C: 93 % of control
[15]
  T/C: 96 % of control
[2]
  T/C: 101 % of control
[16]
  T/C: 92 % of control
[3]
  T/C: 93 % of control and 100 % of control
[17]
  T/C: 90 % of control
[4]
  T/C: 87 % of control and 98 % of control
[5]
  T/C: 88 % of control
[10]
  T/C: 86 % of control

## CSC(SC)=C1C(=O)NC(=O)NC1=O
dose: 3.12 mg/kg/injection, vehicle: saline
  T/C: 111 % of control
dose: 6.25 mg/kg/injection, vehicle: saline
  T/C: 101 % of control
[11]
  T/C: 90 % of control
[12]
  T/C: 96 % of control

## COC1/C=C/C=C(/C)Cc2cc(O)c(Cl)c(c2)N(C)C(=O)CC(OC(=O)C(C)C)C2(C)OC2C(C)C2CC1(O)NC(=O)O2 (stereo unspecified)
dose: 0.25 mg/kg/injection, vehicle: saline + alcohol
  T/C: 155 % of control
dose: 0.5 mg/kg/injection, vehicle: saline + alcohol
  T/C: 150 % of control
dose: 25.0 micrograms/kg/injection, vehicle: saline + alcohol
  T/C: 120 % of control
dose: 400.0 micrograms/kg/injection, vehicle: saline + alcohol
  T/C: 151 % of control

## CCCC(NC(=O)OCc1ccccc1)C(=O)NC(CCSC)C(=O)O (stereo unspecified) (Cbz-[Nva]-Met-OH; configuration not given here)
[17]
  T/C: 100 % of control
[18]
  T/C: 104 % of control
dose: 400.0 mg/kg/injection, vehicle: Klucel (hydroxypropylcellulose) (HPC)
  T/C: 96 % of control
